Molecular target: Dipeptidyl peptidase 1 (Homo sapiens, UniProt P53634)
Test: In Vitro Inhibitory Assay
Description: The compound was diluted with DMSO to a 384-well echo plate at a concentration of 100× of the highest concentration at the beginning of the experiment. 0.2 μL of the diluted compound was pipetted to a black-bottomed 384-well reaction plate for later use. […] The solution was added to the black-bottom 384-well reaction plate ([…]). 10 μL of the buffer was added for the vehicle control group. The plate containing compounds in its wells was incubated at room temperature for 30 minutes.

Chain of Dipeptidyl peptidase 1 (P53634 25-134 limits assumed): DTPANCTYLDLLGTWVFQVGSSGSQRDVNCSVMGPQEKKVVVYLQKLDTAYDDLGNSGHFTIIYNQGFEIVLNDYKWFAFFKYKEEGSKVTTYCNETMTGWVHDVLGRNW
Chain of Dipeptidyl peptidase 1 (P53634 231-394 limits assumed): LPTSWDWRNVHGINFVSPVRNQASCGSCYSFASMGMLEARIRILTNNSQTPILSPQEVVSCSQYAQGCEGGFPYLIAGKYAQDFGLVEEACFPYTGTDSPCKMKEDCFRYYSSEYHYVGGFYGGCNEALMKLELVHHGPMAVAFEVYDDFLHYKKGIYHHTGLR
Chain of Dipeptidyl peptidase 1 (P53634 395-463 limits assumed): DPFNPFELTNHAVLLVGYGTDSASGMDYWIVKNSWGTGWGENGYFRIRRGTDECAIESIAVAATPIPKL

For `N#C[C@H](Cc1ccc2c(c1)CC(=O)N(c1ccc(F)cc1)C2)NC(=O)C1(N)CCCCC1` [US20240083888, Compound 58], the IC50 was 17 nM.
